Patent publication US10526316B2, “Quinoxaline and pyridopyrazine derivatives as PI3Kβ inhibitors” (Janssen Pharmaceutica NV, priority 2015, dated 2020)
Where two headings read alike, the source gives them in different places.

Experiments:
[1] = test system: Akt phosphorylated at Ser473 in PC-3 cells; assay: Cellular assay: phosphorylation of Akt at Ser473 in PC-3 cells (MSD ELISA); format: cell-based; details: PC-3 cells, 60 min compound incubation, MSD ELISA, read-out: IC50 pAkt_S473
Method in brief: (§1)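 PC-3 cells were exposed to compound or 0.3% DMSO for 60 min at 37° C, 5% CO2, then lysed in ice-cold buffer. Phospho-Akt was captured on site-specific antibody-coated plates and detected with Sulfo-tag anti-total Akt by electrochemiluminescence. IC50 values came from five-concentration response curves.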

kinase enzymes [2] = target: T1, kinase enzymes (Homo sapiens, UniProt P48736); assay: Enzyme binding assay (KINOMEscan, DiscoveRx), further kinases of Table A; details: PIK3Cγ_h
T1 construct: purchased DiscoveRx Corporation, San Diego (contract service, KINOMEscan)
Method in brief: (§2)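 Affinity for each kinase was determined by KINOMEscan profiling.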

kinase enzymes [3] = target: T2, kinase enzymes (Homo sapiens, UniProt P42345); assay: as above; details: MTOR_h
T2 construct: purchased DiscoveRx Corporation, San Diego (contract service, KINOMEscan)
Method in brief: as §2

kinase enzymes [4] = target: T3, kinase enzymes (Homo sapiens, UniProt P42336); assay: as above; details: PIK3Cα_h
T3 construct: purchased DiscoveRx Corporation, San Diego (contract service, KINOMEscan)
Method in brief: as §2

PI3Kδ = target: T4, PI3Kδ (Homo sapiens, UniProt O00329); assay: Enzyme binding assay (KINOMEscan, DiscoveRx); details: PIK3Cδ_h
T4 construct: purchased DiscoveRx Corporation, San Diego (contract service, KINOMEscan)
T4 sequence (O00329 1-1044): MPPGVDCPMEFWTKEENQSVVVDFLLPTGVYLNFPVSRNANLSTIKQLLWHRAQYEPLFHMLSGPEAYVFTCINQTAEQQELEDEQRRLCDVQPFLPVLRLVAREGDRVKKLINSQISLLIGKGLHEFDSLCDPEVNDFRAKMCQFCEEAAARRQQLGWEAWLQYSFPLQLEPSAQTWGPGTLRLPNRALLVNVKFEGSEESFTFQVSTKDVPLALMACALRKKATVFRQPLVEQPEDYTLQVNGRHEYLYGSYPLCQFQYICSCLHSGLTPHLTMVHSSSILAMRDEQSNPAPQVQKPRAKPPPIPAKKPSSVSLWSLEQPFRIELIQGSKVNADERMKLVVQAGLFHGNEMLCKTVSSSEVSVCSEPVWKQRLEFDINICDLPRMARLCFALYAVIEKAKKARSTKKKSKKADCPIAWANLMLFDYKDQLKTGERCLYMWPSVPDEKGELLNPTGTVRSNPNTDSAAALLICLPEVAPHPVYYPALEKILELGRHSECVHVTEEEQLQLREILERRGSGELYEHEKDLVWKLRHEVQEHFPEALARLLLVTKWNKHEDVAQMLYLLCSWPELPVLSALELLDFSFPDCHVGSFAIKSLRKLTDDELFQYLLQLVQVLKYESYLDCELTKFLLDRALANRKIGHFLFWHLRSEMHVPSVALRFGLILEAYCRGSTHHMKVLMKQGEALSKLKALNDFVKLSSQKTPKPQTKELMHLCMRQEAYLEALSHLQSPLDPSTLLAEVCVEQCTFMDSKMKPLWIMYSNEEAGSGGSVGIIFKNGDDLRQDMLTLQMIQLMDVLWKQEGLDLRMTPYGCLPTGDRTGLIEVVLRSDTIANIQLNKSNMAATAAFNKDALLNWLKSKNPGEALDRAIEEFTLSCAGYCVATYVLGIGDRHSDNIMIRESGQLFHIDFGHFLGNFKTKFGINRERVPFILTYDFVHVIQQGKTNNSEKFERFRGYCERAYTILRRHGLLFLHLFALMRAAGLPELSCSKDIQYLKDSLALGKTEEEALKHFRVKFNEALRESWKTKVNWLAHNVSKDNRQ
Method in brief: as §2

PI3Kβ = target: T5, PI3Kβ (Homo sapiens, UniProt P42338); assay: Enzyme binding assay (KINOMEscan, DiscoveRx); details: PIK3Cβ_h, read-out: Kd PIK3Cβ_h
T5 construct: purchased DiscoveRx Corporation, San Diego (contract service, KINOMEscan)
Method in brief: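 Values are Kd in nM, the binding constant of each inhibitor for the kinase, obtained from a KINOMEscan enzyme binding assay.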

[5] = test system: Akt phosphorylated at Thr308 in PC-3 cells; assay: Cellular assay: phosphorylation of Akt at Thr308 in PC-3 cells (MSD ELISA); format: cell-based; details: PC-3 cells, 60 min compound incubation, MSD ELISA, read-out: IC50 pAkt_Thr308
Method in brief: as §1

T3 sequence (P42336 whole entry): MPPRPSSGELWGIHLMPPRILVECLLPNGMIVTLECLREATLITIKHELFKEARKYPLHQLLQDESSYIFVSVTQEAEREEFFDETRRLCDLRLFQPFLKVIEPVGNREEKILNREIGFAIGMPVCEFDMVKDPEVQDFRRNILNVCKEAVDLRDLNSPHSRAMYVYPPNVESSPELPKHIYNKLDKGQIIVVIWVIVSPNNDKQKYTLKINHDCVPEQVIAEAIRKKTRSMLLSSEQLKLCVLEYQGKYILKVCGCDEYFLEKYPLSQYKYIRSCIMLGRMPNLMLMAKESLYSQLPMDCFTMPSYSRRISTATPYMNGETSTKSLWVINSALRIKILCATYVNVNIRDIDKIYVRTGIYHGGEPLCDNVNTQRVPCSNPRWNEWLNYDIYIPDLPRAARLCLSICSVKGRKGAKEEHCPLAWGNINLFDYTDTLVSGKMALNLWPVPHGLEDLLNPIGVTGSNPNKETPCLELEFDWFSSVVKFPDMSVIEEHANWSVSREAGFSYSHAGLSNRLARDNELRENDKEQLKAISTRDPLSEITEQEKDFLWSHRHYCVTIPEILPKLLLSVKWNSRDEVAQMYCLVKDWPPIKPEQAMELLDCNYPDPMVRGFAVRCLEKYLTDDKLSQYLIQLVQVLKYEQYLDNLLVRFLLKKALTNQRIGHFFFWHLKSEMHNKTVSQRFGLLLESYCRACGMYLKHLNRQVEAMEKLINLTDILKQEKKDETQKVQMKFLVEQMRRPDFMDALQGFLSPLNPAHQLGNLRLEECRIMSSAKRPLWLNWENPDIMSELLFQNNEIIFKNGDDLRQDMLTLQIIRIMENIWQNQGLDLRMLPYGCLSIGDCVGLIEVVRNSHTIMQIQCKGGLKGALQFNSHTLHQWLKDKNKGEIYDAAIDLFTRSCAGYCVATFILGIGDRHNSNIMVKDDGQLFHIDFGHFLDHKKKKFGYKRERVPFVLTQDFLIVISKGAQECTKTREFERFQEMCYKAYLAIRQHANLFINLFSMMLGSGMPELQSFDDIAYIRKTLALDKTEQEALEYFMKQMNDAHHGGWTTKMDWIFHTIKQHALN
T5 sequence (P42338 whole entry): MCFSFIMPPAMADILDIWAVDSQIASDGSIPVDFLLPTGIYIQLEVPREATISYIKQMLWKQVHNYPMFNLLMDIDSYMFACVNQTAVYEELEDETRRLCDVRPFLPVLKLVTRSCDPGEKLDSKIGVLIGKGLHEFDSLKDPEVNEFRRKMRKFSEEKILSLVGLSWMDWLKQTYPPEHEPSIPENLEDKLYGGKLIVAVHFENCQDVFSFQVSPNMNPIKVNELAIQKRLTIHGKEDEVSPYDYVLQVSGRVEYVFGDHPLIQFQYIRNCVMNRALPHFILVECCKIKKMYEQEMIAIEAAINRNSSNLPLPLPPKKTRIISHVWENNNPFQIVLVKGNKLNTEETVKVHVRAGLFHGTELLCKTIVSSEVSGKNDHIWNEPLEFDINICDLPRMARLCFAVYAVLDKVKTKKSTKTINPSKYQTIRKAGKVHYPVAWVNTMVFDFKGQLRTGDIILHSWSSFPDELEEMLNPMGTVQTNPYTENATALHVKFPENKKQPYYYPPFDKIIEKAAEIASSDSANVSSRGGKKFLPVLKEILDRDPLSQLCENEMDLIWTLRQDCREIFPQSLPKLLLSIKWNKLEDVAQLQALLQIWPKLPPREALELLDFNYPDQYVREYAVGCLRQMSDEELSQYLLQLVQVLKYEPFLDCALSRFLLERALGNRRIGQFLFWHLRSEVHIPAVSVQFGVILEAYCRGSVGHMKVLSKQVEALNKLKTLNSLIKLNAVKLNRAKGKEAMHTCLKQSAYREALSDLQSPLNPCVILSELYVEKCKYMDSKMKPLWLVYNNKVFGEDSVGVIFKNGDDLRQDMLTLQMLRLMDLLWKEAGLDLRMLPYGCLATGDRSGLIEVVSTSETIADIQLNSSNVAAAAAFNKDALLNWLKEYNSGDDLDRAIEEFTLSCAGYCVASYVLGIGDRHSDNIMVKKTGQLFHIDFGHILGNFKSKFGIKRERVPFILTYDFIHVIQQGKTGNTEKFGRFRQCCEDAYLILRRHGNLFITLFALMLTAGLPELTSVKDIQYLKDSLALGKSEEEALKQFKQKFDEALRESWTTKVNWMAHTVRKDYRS
T1 sequence (P48736 whole entry): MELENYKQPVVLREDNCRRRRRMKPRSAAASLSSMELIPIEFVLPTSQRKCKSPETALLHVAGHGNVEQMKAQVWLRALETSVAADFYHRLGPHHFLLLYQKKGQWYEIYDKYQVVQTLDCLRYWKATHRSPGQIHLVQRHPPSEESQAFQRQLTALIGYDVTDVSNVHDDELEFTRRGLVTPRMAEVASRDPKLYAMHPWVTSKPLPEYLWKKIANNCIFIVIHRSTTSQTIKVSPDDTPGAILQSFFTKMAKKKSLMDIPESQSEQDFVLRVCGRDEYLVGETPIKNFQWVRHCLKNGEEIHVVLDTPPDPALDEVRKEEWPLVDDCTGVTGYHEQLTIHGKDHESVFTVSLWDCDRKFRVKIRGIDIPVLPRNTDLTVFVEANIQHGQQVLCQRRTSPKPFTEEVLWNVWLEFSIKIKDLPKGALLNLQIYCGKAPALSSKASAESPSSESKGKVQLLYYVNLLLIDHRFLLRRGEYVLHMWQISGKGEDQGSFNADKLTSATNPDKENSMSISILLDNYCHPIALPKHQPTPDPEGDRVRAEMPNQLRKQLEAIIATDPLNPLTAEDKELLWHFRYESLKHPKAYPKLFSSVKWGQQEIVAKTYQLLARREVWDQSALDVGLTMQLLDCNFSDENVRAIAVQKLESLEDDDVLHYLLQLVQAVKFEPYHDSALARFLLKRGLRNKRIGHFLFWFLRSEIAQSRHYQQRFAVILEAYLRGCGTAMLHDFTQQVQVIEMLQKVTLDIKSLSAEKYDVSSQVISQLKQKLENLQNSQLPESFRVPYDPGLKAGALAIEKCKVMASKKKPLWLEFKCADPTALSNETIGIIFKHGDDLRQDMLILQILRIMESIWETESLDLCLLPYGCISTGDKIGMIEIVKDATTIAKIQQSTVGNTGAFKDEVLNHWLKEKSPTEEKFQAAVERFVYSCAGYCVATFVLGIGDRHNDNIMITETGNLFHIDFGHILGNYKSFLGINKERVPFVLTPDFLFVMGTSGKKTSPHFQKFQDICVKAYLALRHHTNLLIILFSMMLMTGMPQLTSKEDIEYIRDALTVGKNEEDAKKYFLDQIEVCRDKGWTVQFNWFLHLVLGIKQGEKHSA

| SMILES | IC50 ([1]; Homo sapiens, PC-3, 1 h) | Kd (kinase enzymes [2]) | Kd (kinase enzymes [3]) | Kd (kinase enzymes [4]) | Kd (PI3Kδ) | Kd (PI3Kβ) | IC50 ([5]; Homo sapiens, PC-3, 1 h) | melting point | IC50 [1] | IC50 [5] |
| --- | --- | --- | --- | --- | --- | --- | --- | --- | --- | --- |
| CC(Oc1cccc(F)c1)c1cc(C(=O)N2CCC[C@H]2CO)cc2ncc(N3CCOCC3)nc12 (single isomer, unassigned) [Compound 86] | 513 nM | 21400 nM | > 30200 nM | 3470 nM | 537 nM | 15 nM | 263 nM | 76 °C | – | – |
| CC(Nc1ccc(F)c(F)c1)c1cc(C(=O)NCCCO)cc2ncc(N3CCOCC3)nc12 (single isomer, unassigned) [Compound 280a] | – | 12000 nM | 20900 nM | 1700 nM | 562 nM | 12 nM | – | 80 °C | 87 nM | 45 nM |
| CC(Nc1cc(F)cc(F)c1)c1cc(CO)cc2ncc(N3CCOCC3)nc12 (single isomer, unassigned) [Compound 154b] | – | 7760 nM | 25100 nM | 20900 nM | 14800 nM | 490 nM | – | 90 °C | > 513 nM | > 513 nM |
| CN[C@H]1CCN(C(=O)c2cc(C(C)Oc3ccc(F)c(F)c3)c3nc(N4CCOCC4)cnc3c2)C1 (single isomer, unassigned) [Compound 370b] | – | > 30200 nM | > 30200 nM | > 30200 nM | 15500 nM | 550 nM | – | 80 °C | > 513 nM | > 513 nM |
| CC(Nc1ccc(F)c(F)c1)c1cc(C(=O)N2CCC[C@H](O)C2)cc2ncc(N3CCOCC3)nc12 (some centres unmarked) [Compound 302] | 76 nM | 15500 nM | > 30200 nM | 1950 nM | 380 nM | 5 nM | 76 nM | 80 °C | – | – |
| COC(=O)c1cc(C2CCCN2c2cc(F)cc(F)c2)c2nc(N3CCOCC3)cnc2c1 (single isomer, unassigned) [Compound 31] | – | > 32000 nM | > 32000 nM | > 32000 nM | > 32000 nM | > 32000 nM | – | 213 °C | > 513 nM | > 513 nM |
| CC(Nc1cc(F)cc(F)c1)c1cc(C(=O)N(C)C)cc2ncc(N3CCOCC3)nc12 (single isomer, unassigned) [Compound 13] | – | > 30200 nM | > 30200 nM | 23900 nM | 5890 nM | 182 nM | – | 217 °C | > 513 nM | > 513 nM |
| CC(Nc1cccc(F)c1)c1cc(C(=O)NCC(=O)O)cc2ncc(N3CCOCC3)nc12 (single isomer, unassigned) [Compound 393a] | > 513 nM | 1380 nM | 6760 nM | 437 nM | 1230 nM | 11 nM | > 513 nM | 115 °C | – | – |
| CC(Nc1ccc(F)c(F)c1)c1cc(C(=O)NCC2CCCN2)cc2ncc(N3CCOCC3)nc12 (single isomer, unassigned) [Compound 329a] | – | 2750 nM | 22900 nM | 339 nM | 26 nM | 0.1 nM | – | 121 °C | 14 nM | 6 nM |
| Cc1ccc(NC(C)c2cc(C(=O)NCCO)cc3ncc(N4CCOCC4)nc23)cc1F (centres unmarked) [Compound 295] | > 513 nM | 6310 nM | 30900 nM | 7240 nM | 7760 nM | 309 nM | > 513 nM | 80 °C | – | – |
| CC(Nc1cc(F)cc(F)c1)c1cc(C(=O)N(C)CCN(C)C)cc2ncc(N3CCOCC3)nc12 (centres unmarked) [Compound 180] | 3 nM | 2190 nM | > 30200 nM | 891 nM | 49 nM | 0.1 nM | 1 nM | 148 °C | – | – |
| O=C(NCCO)c1cc(C2CCCN2c2cc(F)cc(F)c2)c2nc(N3CCOCC3)cnc2c1 (centres unmarked) [Compound 71] | ~15 nM | 794 nM | 22400 nM | 251 nM | 138 nM | 1 nM | 13 nM | 80 °C | – | – |
| CC(Nc1cc(F)cc(F)c1)c1cc(C(=O)NCCOCCN)cc2ncc(N3CCOCC3)nc12 (centres unmarked) [Compound 149] | 251 nM | 2340 nM | > 30200 nM | 2950 nM | 398 nM | 2 nM | 138 nM | 80 °C | – | – |
| CC(Nc1cc(F)cc(F)c1)c1cc(C(=O)O)cc2ncc(N3CCOCC3)nc12 (single isomer, unassigned) [Compound 83b] | > 513 nM | 562 nM | 1290 nM | 170 nM | 129 nM | 1 nM | > 513 nM | 180 °C | – | – |
| CN(C)C(=O)c1cc(N2CCCC2c2cc(F)cc(F)c2)c2nc(N3CCOCC3)cnc2c1 (single isomer, unassigned) [Compound 395b] | – | 32400 nM | 18600 nM | 3980 nM | 3550 nM | 631 nM | – | 102 °C | > 513 nM | > 513 nM |
| CC(Nc1cc(F)cc(F)c1)c1cc(C(=O)N2CCNC(C(F)(F)F)C2)cc2ncc(N3CCOCC3)nc12 (centres unmarked) [Compound 237] | 20 nM | 9330 nM | > 30200 nM | 288 nM | 138 nM | 1 nM | 11 nM | 80 °C | – | – |
| CN(C)C(=O)c1cc(N(C)Cc2cc(F)cc(F)c2)c2nc(N3CCOCC3)cnc2c1 [Compound 358] | > 513 nM | 17800 nM | > 30200 nM | 10000 nM | 2240 nM | 148 nM | > 513 nM | 80 °C | – | – |
| CC(C)NCCNC(=O)c1cc(C(C)Nc2cccc(F)c2)c2nc(N3CCOCC3)cnc2c1 (centres unmarked) [Compound 226] | 20 nM | 5620 nM | 28800 nM | 2570 nM | 275 nM | 1 nM | 13 nM | 158 °C | – | – |
| CC(Nc1ccc(F)c(F)c1)c1cc(C(=O)NCC2CCCN2)cc2ncc(N3CCOCC3)nc12 (single isomer, unassigned) [Compound 329b] | – | 6310 nM | 22900 nM | 6030 nM | 1780 nM | 42 nM | – | 124 °C | > 513 nM | > 513 nM |
| CC(Nc1ccc(F)c(F)c1)c1cc(C(=O)NC[C@H]2CCCN2)cc2ncc(N3CCOCC3)nc12 (some centres unmarked) [Compound 376] | 105 nM | 5130 nM | > 30200 nM | 4270 nM | 295 nM | 1 nM | 85 nM | 130 °C | – | – |
| CC(Nc1ccc(F)c(F)c1)c1cc(C(=O)NCCN(C)C)cc2ncc(N3CCOCC3)nc12 (centres unmarked) [Compound 281] | 15 nM | 3550 nM | > 30200 nM | 3160 nM | 91 nM | 0.3 nM | 15 nM | 80 °C | – | – |
| C[C@H](CO)NC(=O)c1cc(C2CCCN2c2cc(F)cc(F)c2)c2nc(N3CCOCC3)cnc2c1 (single isomer, unassigned) [Compound 70] | ~45 nM | 1100 nM | 19100 nM | 339 nM | 148 nM | 2 nM | 23 nM | 80 °C | – | – |
